Data on 1 molecule can be found in patent US20190247376A1, “NICOTINIC ACETYLCHOLINE RECEPTOR AGONIST ATTENUATES ILC2-DEPENDENT AIRWAY HYPERREACTIVITY” (University of Southern California, priority 2016, published 2019).

Molecules are shown by their SMILES.

The subject of experiment [1] is Rag2 GC double knockout mice with adoptively transferred human ILC2s. Briefly: Human ILC2-mediated AHR in humanized ILC2 mice. It counts as in vivo, mouse. Conditions: i.n. IL-33, agonist three consecutive days. As for the experimental part:
FIGS. 7A-7E: α7nAChR agonist prevents human ILC2s mediated AHR and allergic. (FIG. 7A) Human ILC2s were purified from PBMCs via FACS and cultured (10^4 cells per mL) in the presence of recombinant human IL-33 (20 ng mL^−1), IL-2 (10 ng mL^−1), and IL-7 (20 ng mL^−1), with or without α7nAChR agonist for 24h. In the right panel, data are presented as means of four individual donors. […]
Finally, to confirm the efficacy of α7nAChR agonist treatment in human ILC2-mediated AHR, sorted human ILC2s (hILC2s) were cultured in the presence of rh-IL-2 (20 ng mL^−1) and rh-IL-7 (20 ng mL^−1) for 48 hours. […] These humanized mice were given i.n. rh-IL33 (1 μg per mice) with or without α7nAChR agonists (125 µg mL^−1) for three consecutive days, and then AHR was evaluated (FIG. 7B). […]
For human peripheral ILC2s, peripheral blood mononuclear cells (PBMCs) were first isolated from human fresh blood by diluting the blood 1:1 in PBS, adding to SepMate™-50 separation tubes (STEMCELL Technologies Inc, Vancouver, Canada) prefilled with 15-mL Lymphoprep™ each (Axis-Shield, Oslo, Norway), and centrifuging at 1200 g for 15 minutes. […] On day 4, lung function was measured and BAL was performed and analyzed.

In a further experiment the test system is Rag2−/− GC−/− mice. Briefly: IL-33-induced AHR in Rag2−/− GC−/− mice after adoptive transfer of WT or α7nAChR-deficient ILC2s. It counts as in vivo, mouse. Conditions: IL-33, agonist 125 μg days 1-3. How it is done: FIGS. 4A-4E: α7nAChR expression is critical for GTS-21 action on ILC2s in vivo. BALB/cByJ and α7nAChR^−/− mice were intranasally challenged with rm-IL-33 or PBS, and also given α7nAChR agonist (125 μg) or PBS on days 1-3. Measurement of lung function and analysis of BAL followed on day 4. (FIG. 4A) Lung resistance. (FIG. 4B) Total number of eosinophils in BALF. (FIG. 4C) Rag^−/− GC^−/− mice were received ILC2s from either WT or α7nAChR^−/− mice. After the adoptive transfer, mice were intranasally challenged with rm-IL-33 or PBS; they also received α7nAChR agonist (125 μg) or PBS on days 1-3. Measurement of lung function and analysis of BAL followed on day 4, according to scheme 4C. (FIG. 4D) Lung resistance. (FIG. 4E) Total number of eosinophils in BALF. Data are representative of at least three independent experiments and are presented as means±SEM (n=4; Student's test ***, p<0.001, WT IL-33+α7nAChR agonist vs. α7nAChR^−/− IL-33+α7nAChR agonist).
Given that a variety of cells participate in allergic inflammation, Applicants wanted to investigate the effect of the agonist specifically on ILC2s. Rag2^−/− GC^−/− mice lack not only B and T cells, but NK cells and ILC2s as well. Using methods previously described by our laboratory^36, Applicants adoptively transferred WT or α7nAChR-deficient ILC2s into these Rag2^−/− GC^−/− mice, and then treated them with IL-33, with or without α7nAChR agonist. As expected, Applicants observed a decrease of AHR and of eosinophil recruitment in mice injected with WT ILC2s in response to α7nAChR treatment (FIGS. 4C-4E).
Mice were intranasally (i.n.) administered carrier-free recombinant mouse IL-33 (BioLegend, San Diego Calif., 0.5 µg per mouse in 50 µL) with or without […] of α7nAChR agonist (kindly provided by Lin Chen) on three consecutive days. Mice were intranasally (i.n.) administered carrier-free recombinant mouse IL-25 (BioLegend, San Diego Calif., 5 µg per mouse in 50 µL) with or without […] of α7nAChR agonist on three consecutive days. For Alternaria alternata experiments, mice were i.n. administered Alternaria alternata (Greer Labs, Lenoir, N.C., 100 μg per mouse in 50 μL) with or without 125 µg α7nAChR agonist for four consecutive days. One day after the last challenge, mice were anesthetized using i.p. injection of ketamine (10 mg mL^−1) and xylazine (1 mg mL^−1). Measurements of airway resistance and dynamic compliance were conducted with the Fine Pointe RC System (Buxco Research Systems, Wilmington, N.C.), in which mice were mechanically ventilated using a modified version as previously described^36,67. […] Maximum lung resistance (RL) and minimum compliance (Cdyn) values were recorded during a three-minute period after each methacholine challenge.

Where [2] appears, read: Rag2−/− GC−/− mice injected with WT ILC2s.
Setting [3] is: Rag2−/− GC−/− mice injected with α7nAChR-deficient ILC2s.

Consider `COc1ccc(/C=C2\CCCN=C2c2cccnc2)c(OC)c1` [GTS-21, 3-[(3E)-3-[(2,4-dimethoxyphenyl)methylidene]-5,6-dihydro-4H-pyridin-2-yl]pyridine], for which, in experiment [1], the “ILC2-mediated AHR (lung resistance)” value is recorded as “dampened” and the “allergic inflammation (eosinophils in BALF, lung ILC2s)” value was “dampened”. In addition, in the experiment on Rag2−/− GC−/− mice (setting [2]), the AHR entry is “decrease” and the eosinophil recruitment result is recorded as “decrease”. For the same molecule, in the experiment with Rag2−/− GC−/− mice (setting [3]), the AHR entry is recorded as “affected neither AHR nor eosinophilia” and the eosinophilia result is reported as “affected neither AHR nor eosinophilia”.
